These results are taken from US10039283B2, “Substituted pyrazolyl-nicotin(thio)amide derivatives and their use as fungicides” (BAYER CROPSCIENCE AKTIENGESELLSCHAFT, priority 2014, dated 2018).

A short description of the data set: Log P by HPLC on reversed phase, method [a], acidic range (0.1% formic acid). The following applies: LC-UV, 0.1% formic acid in water and acetonitrile. It counts as physicochemical.
`Cc1cnc(C(F)F)c(C(=O)Nc2cnn(-c3cccc(C(F)(F)F)c3)c2C(F)(F)F)c1` [Example 139]: the LogP is 3.39^[a].
For `Cc1cnc(C(F)F)c(C(=O)Nc2cnn(-c3ccccc3F)c2C(F)(F)F)c1` [Example 140] the value was 2.77^[a]; for `Cc1cnc(C(F)F)c(C(=O)Nc2cnn(-c3ccc(F)cc3)c2C(F)(F)F)c1` [Example 141], 2.86^[a].
Consider `Cc1cnc(C(F)F)c(C(=O)Nc2cnn(-c3ccc(C(C)C)cc3)c2C(F)(F)F)c1` [Example 142], for which the LogP is 3.78^[a].
Turning to `N#Cc1c(NC(=O)c2cccnc2C(F)F)cnn1-c1ccccc1` [Example 143], the LogP is 2.28^[a].
With `O=C(Nc1cnn(-c2cccc(Cl)c2Cl)c1C(F)(F)F)c1ccc(Br)nc1C(F)F` [Example 144], the LogP is 3.80^[a].
Take `O=C(Nc1cnn(-c2ccc(Cl)cc2)c1C(F)(F)F)c1ccc(Br)nc1C(F)F` [Example 145]: the LogP is 3.73^[a].
In the case of `O=C(Nc1cnn(-c2ccccc2F)c1-c1cccc(F)c1)c1cccnc1C(F)F` [Example 146], the LogP was 2.51^[a].
`O=C(Nc1cnn(-c2ccccc2F)c1-c1ccc(F)cc1)c1cccnc1C(F)F` [Example 147]: the LogP is 2.51^[a].
As to `O=C(Nc1cnn(-c2ccccc2F)c1-c1ccccc1)c1cccnc1C(F)F` [Example 148], the LogP is 2.39^[a].
As for `O=C(Nc1cnn(-c2ccccc2F)c1-c1ccc(Cl)cc1)c1cccnc1C(F)F` [Example 149], the LogP is 2.73^[a].
Regarding `O=C(Nc1cnn(-c2ccc(Br)cc2)c1Br)c1cccnc1C(F)F` [Example 150], the LogP was 2.67^[a].
Regarding `O=C(Nc1cnn(-c2ccc(Br)cc2)c1Cl)c1cccnc1C(F)F` [Example 151], the LogP is 3.47^[a].
Turning to `COc1c(NC(=O)c2cccnc2C(F)F)cnn1-c1ccc(Br)cc1` [Example 152], the LogP was 2.40^[a].
In the case of `O=C(Nc1cnn(-c2cccc(Cl)c2)c1Br)c1cccnc1C(F)F` [Example 153], the LogP was 2.54^[a].
For `Cc1cccc(-n2ncc(NC(=O)c3cc(C)cnc3C(F)F)c2C(F)(F)F)c1` [Example 154] the value was 2.96^[a]; for `O=C(Nc1cnn(-c2cccc(Cl)c2)c1C(F)(F)F)c1ccc(Cl)nc1C(F)F` [Example 155], 3.62^[a].
Turning to `Cc1cccc(-n2ncc(NC(=O)c3ccc(Cl)nc3C(F)F)c2C(F)(F)F)c1` [Example 156], the LogP is 3.33^[a].
Take `Cc1ccc(-n2ncc(NC(=O)c3ccc(Cl)nc3C(F)F)c2C(F)(F)F)cc1` [Example 157]: the LogP is 3.48^[a].
For `O=C(Nc1cnn(-c2ccccc2F)c1C(F)(F)F)c1ccc(Cl)nc1C(F)F` [Example 158], the LogP is 3.15^[a].
Regarding `CC(C)c1ccc(-n2ncc(NC(=O)c3ccc(Cl)nc3C(F)F)c2C(F)(F)F)cc1` [Example 159], the LogP is 4.13^[a].
Turning to `O=C(Nc1cnn(-c2c(Cl)cccc2Cl)c1C(F)(F)F)c1ccc(Cl)nc1C(F)F` [Example 160], the LogP was 3.53^[a].
Consider `O=C(Nc1cnn(-c2cc(Cl)cc(Cl)c2)c1C(F)(F)F)c1ccc(Cl)nc1C(F)F` [Example 161], for which the LogP is 4.23^[a].
Take `O=C(Nc1cnn(-c2ccc(Cl)cc2Cl)c1C(F)(F)F)c1ccc(Cl)nc1C(F)F` [Example 162]: the LogP is 3.85^[a].
Turning to `O=C(Nc1cnn(-c2cccc(Cl)c2Cl)c1C(F)(F)F)c1ccc(Cl)nc1C(F)F` [Example 163], the LogP is 3.71^[a].
As for `N#Cc1c(NC(=O)c2ccc(Cl)nc2C(F)F)cnn1-c1ccccc1` [Example 164], the LogP is 2.90^[a].
For the compound `COc1cnc(C(F)F)c(C(=O)Nc2cnn(-c3cccc(Cl)c3Cl)c2C(F)(F)F)c1` [Example 165], the LogP is 3.37^[a].
For `Cc1cnc(C(F)F)c(C(=O)Nc2cnn(-c3ccccc3)c2C#N)c1` [Example 166] the value was 2.51^[a].
As for `Cc1cnc(C(F)F)c(C(=O)Nc2cnn(-c3cccc(Cl)c3Cl)c2C(F)(F)F)c1` [Example 167], the LogP was 3.35^[a].
With `COc1cnc(C(F)F)c(C(=O)Nc2cnn(-c3ccc(Cl)cc3Cl)c2C(F)(F)F)c1` [Example 168], the LogP was 3.53^[a].
For `COc1cnc(C(F)F)c(C(=O)Nc2cnn(-c3ccc(Cl)cc3)c2C(F)(F)F)c1` [Example 169] the value was 3.29^[a]; for `Cc1cnc(C(F)F)c(C(=O)Nc2cnn(Cc3ccccc3)c2C(F)(F)F)c1` [Example 170], 2.95^[a]; for `Cc1cnc(C(F)F)c(C(=O)Nc2cnn(-c3c(Cl)cccc3Cl)c2C(F)(F)F)c1` [Example 171], 3.16^[a].
Take `O=C(Nc1cnn(-c2ccc(Cl)cc2Cl)c1C(F)(F)F)c1ccc(Br)nc1C(F)F` [Example 172]: the LogP was 3.96^[a].
For `O=C(Nc1cnn(Cc2ccccc2)c1C(F)(F)F)c1ccc(Cl)nc1C(F)F` [Example 173] the value was 3.33^[a].
With `Cc1cnc(C(F)F)c(C(=O)Nc2cnn(-c3cc(Cl)cc(Cl)c3)c2C(F)(F)F)c1` [Example 174] the figure was 3.89^[a]; with `Cc1cnc(C(F)F)c(C(=O)Nc2cnn(-c3cc(Cl)ccc3Cl)c2C(F)(F)F)c1` [Example 175], 3.39^[a]; with `O=C(Nc1cnn(-c2cc(Cl)ccc2Cl)c1C(F)(F)F)c1ccc(Cl)nc1C(F)F` [Example 176], 3.76^[a].
For `COc1cnc(C(F)F)c(C(=O)Nc2cnn(-c3cc(Cl)ccc3Cl)c2C(F)(F)F)c1` [Example 177] the value was 3.39^[a]; for `O=C(Nc1cnn(-c2cc(Cl)ccc2Cl)c1C(F)(F)F)c1ccc(Br)nc1C(F)F` [Example 178], 3.85^[a].
Turning to `Cc1cnc(C(F)F)c(C(=O)Nc2cnn(-c3ccc(Cl)c(Cl)c3)c2C(F)(F)F)c1` [Example 179], the LogP is 3.76^[a].
In the case of `O=C(Nc1cnn(-c2ccc(Cl)c(Cl)c2)c1C(F)(F)F)c1ccc(Cl)nc1C(F)F` [Example 180], the LogP is 4.11^[a].
Regarding `O=C(Nc1cnn(-c2ccc(Cl)c(Cl)c2)c1C(F)(F)F)c1ccc(Br)nc1C(F)F` [Example 181], the LogP was 4.19^[a].
`O=C(Nc1cnn(-c2ccc(C(F)(F)F)cc2)c1-c1ccc(Cl)cc1)c1cccnc1C(F)F` [Example 182]: the LogP is 3.55^[a].
With `O=C(Nc1cnn(-c2ccc(Cl)cc2)c1Cl)c1cccnc1C(F)F` [Example 183] the figure was 2.55^[a].
On to `O=C(Nc1cnn(-c2ccc(C(F)(F)F)cc2)c1-c1ccc(F)cc1)c1cccnc1C(F)F` [Example 184], for which the LogP is 3.31^[a].
As for `O=C(Nc1cnn(-c2ccc(C(F)(F)F)cc2)c1-c1cccc(F)c1)c1cccnc1C(F)F` [Example 185], the LogP was 3.31^[a].
Take `O=C(Nc1cnn(-c2ccc(C(F)(F)F)cc2)c1-c1ccccc1)c1cccnc1C(F)F` [Example 186]: the LogP is 3.24^[a].
As to `O=C(Nc1cnn(-c2ccc(Cl)cc2)c1-c1ccc(F)cc1)c1cccnc1C(F)F` [Example 187], the LogP was 3.10^[a].
On to `O=C(Nc1cnn(-c2ccc(C(F)(F)F)cc2)c1Cl)c1cccnc1C(F)F` [Example 188], for which the LogP is 2.81^[a].
For the compound `COc1ccc(-n2ncc(NC(=O)c3cccnc3C(F)F)c2Cl)cc1` [Example 189], the LogP was 2.09^[a].
